# B1: huN901-DM1 conjugate (Sephadex G25): huN901 antibody conjugated in one step with maytansinoid 2, Sephadex G25 purified, average 2.08 DM1 per antibody (conjugate, chains of the INN, looked up)
# VH: QVQLVESGGGVVQPGRSLRLSCAASGFTFSSFGMHWVRQAPGKGLEWVAYISSGSFTIYYADSVKGRFTISRDNSKNTLYLQMNSLRAEDTAVYYCARMRKGYAMDYWGQGTLVTVSS
# VL: DVVMTQSPLSLPVTLGQPASISCRSSQIIIHSDGNTYLEWFQQRPGQSPRRLIYKVSNRFSGVPDRFSGSGSGTDFTLKISRVEAEDVGVYYCFQGSHVPHTFGQGTKVEIK
# modifications: DM1 maytansinoid conjugate
# notes: huN901 antibody conjugated in one step with maytansinoid 2, Sephadex G25 purified, average 2.08 DM1 per antibody
# B2: huN901: control unconjugated antibody whose antigen is NCAM/CD56 (antibody, chains of the INN, looked up, V domains shown)
# VH: B1 VH
# VL: B1 VL
# B3: huN901-DM1 conjugate (Sephacryl S300): huN901 antibody conjugated in one step with maytansinoid 2, Sephacryl S300 purified, average 1.61 DM1 per antibody (conjugate, chains of the INN, looked up)
# VH: B1 VH
# VL: B1 VL
# modifications: DM1 maytansinoid conjugate
# notes: huN901 antibody conjugated in one step with maytansinoid 2, Sephacryl S300 purified, average 1.61 DM1 per antibody
# Tests used:
# L1210 cells = L1210 cells treated in vivo; untreated control mitotic index 3.2 to 5.8%; cited from earlier work
# [1] = tested on: P388, L1210, and LY5178 murine leukemic cell suspensions; conditions: in vitro; P388 line the most sensitive; cited from earlier work
# [2] = tested on: human acute lymphoblastic leukemia line CEM; conditions: in vitro; cited from earlier work
# [3] = tested on: human nasopharyngeal carcinoma cells; conditions: cited from earlier work
# [4] = tested on: P388 lymphocytic leukemia system; conditions: in vivo; suggested a high therapeutic index; cited from earlier work
# [5] = tested on: L1210 mouse leukemia system; conditions: in vivo; cited from earlier work
# [6] = tested on: Lewis lung carcinoma system; conditions: in vivo; cited from earlier work
# [7] = tested on: B-16 melanocarcinoma system; conditions: in vivo; cited from earlier work
# [8] = more cytotoxic; cited from earlier work
# [9] = tested on: A431 cells constitutively expressing the antigen for huN901 (NCAM/CD56); assay: in vitro cytotoxicity (colony formation) towards antigen-expressing cells; format: cell-based, human; conditions: 5 to 7 days incubation; for IC50: surviving fraction, FIG. 1, read-out: IC50 in killing antigen positive cells
# Description: The huN901-DM1 conjugates prepared by this new, one step method were evaluated for in vitro cytotoxicity towards antigen-expressing cells as follows. A clone of A431 cells constitutively expressing the antigen for huN901 (NCAM/CD56) were used in this assay. Cells were plated into 6-well tissue-culture treated plates at a density of 2×10^3 cells/well in 2 ml of DMEM medium supplemented with 10% fetal calf serum and penicillin+streptomycin. A huN901-DM1 conjugate or the control huN901 antibody was added to the wells at the time of plating, and the cultures were incubated in a tissue culture incubator at 37° C., 6% CO2, for 5 to 7 days to form colonies not smaller than 25 cells/colony. The plates were then washed with PBS, and then fixed/stained for 30 min at room temperature with 10% formaldehyde/0.2% (w/v) Crystal Violet in PBS. The wells were rinsed 3 times with water, dried by air, and the colonies were counted under a dissection low magnification microscope. The surviving fractions were calculated as the number of colonies in drug-treated well/number of colonies in non-treated well.
molecule,measurement,setting,value
COc1cc2cc(c1Cl)N(C)C(=O)C[C@H](OC(=O)[C@H](C)N(C)C(C)=O)[C@]1(C)O[C@H]1[C@H](C)[C@@H]1C[C@@](O)(NC(=O)O1)[C@H](OC)/C=C/C=C(\C)C2 [maytansine],cells accumulating in mitosis,L1210 cells,67%
same,doses at which cell suspensions were inhibited,[1],10^−3 to 10^−1 μg/μl
same,concentrations at which the line was inhibited,[2],≥ 10^−7 mg/ml
same,inhibition of in vitro growth,[3],active inhibitor
same,dosage range over which tumor growth was inhibited,[4],50- to 100 fold
same,inhibitory activity,[5],significant inhibitory activity
same,inhibitory activity,[6],significant inhibitory activity
same,inhibitory activity,[7],significant inhibitory activity
same,"cytotoxicity relative to conventional cancer chemotherapeutic agents like methotrexate, daunorubicin, and vincristine",[8],100 to 1000 fold
B1,IC50,[9],0.1 nM
B2,toxicity to antigen positive cells,[9]; FIG. 1,non-toxic
B3,IC50,[9],0.1 nM

# — patent publication US7368565B2, “Methods for preparation of cytotoxic conjugates of maytansinoids and cell binding agents” (Immunogen Inc., priority 2001, dated 2008)
